Laboratory results from patent US8901118B2, “Compounds and methods for kinase modulation, and indications therefor” (Plexxikon Inc., priority 2010, dated 2014).

Key:
BCR-NTRK2 BaF3 cells = target: T1, BCR-NTRK2 BaF3 cells (Homo sapiens, UniProt Q16620); assay: BaF3 BCR-NTRK2 cell proliferation assay (ATPlite); type: cell-based; details: read-out: Inhibition of Cell Proliferation IC50, BCR/BaF3 TrkB
T1 construct: fused on or other part: P11274 (Breakpoint cluster region protein)
How it was run: (§1)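 ATP-based luminescence (ATPlite), read after 10 min at room temperature, served as a proxy for cell number, and IC50 was fitted against compound concentration. Before that, cells were treated for 3 days with an 8-point 1:3 dilution series starting at 10 μM. BaF3 cells were plated at 10,000/well without IL-3, and MV-4-11 cells at 25,000/well.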

SKNSH cells = assay: SKNSH (human neuroblastoma) cell proliferation assay (ATPlite); type: cell-based; details: SK-N-SH, read-out: Inhibition of Cell Proliferation IC50, SKNSH
How it was run: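 SK-N-SH human neuroblastoma cells grown in RPMI with 10% FBS were pelleted, resuspended at 2×10^4 cells/mL, and plated at 3,000 cells per well (150 μL) in 96-well plates, then kept overnight at 37° C. in 5% CO2. Compounds in an 8-point 1:3 DMSO series were added as 0.75 μL aliquots.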

CYP2C19 = CYP2C19 (Homo sapiens, UniProt P33261); assay: CYP2C19 inhibition (fluorescent substrate CEC); type: in vitro ADME; details: read-out: Cyp IC50 2C19
Sequence of CYP2C19 (P33261 whole entry): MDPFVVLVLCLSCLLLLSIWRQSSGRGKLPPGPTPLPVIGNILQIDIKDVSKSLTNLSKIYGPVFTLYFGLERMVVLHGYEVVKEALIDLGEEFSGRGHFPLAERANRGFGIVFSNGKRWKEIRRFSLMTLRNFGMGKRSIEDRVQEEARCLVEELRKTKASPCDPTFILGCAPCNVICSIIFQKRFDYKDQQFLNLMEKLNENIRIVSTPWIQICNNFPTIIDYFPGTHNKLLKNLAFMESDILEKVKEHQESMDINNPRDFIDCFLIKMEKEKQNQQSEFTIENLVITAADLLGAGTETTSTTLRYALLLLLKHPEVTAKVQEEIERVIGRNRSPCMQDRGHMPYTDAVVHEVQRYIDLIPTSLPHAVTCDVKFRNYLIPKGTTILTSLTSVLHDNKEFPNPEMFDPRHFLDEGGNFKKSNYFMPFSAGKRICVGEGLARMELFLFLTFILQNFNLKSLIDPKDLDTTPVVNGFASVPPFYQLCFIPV
How it was run: (§2)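 Compounds, serially diluted 1:1 over 10 points in NADPH-regenerating cofactor mix with 5% acetonitrile, were preincubated 10 min at 37 °C, then run with enzyme and substrate at 37 °C (CYP1A2 15 min; CYP2C9 45 min; CYP2C19, CYP2D6 30 min). Product fluorescence gave IC50s.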

BCR-NTRK1 BaF3 cells = target: T2, BCR-NTRK1 BaF3 cells (Homo sapiens, UniProt P04629); assay: BaF3 BCR-NTRK1 cell proliferation assay (ATPlite); type: cell-based; details: read-out: Inhibition of Cell Proliferation IC50, BCR/BaF3 TrkA
T2 construct: fused on or other part: P11274 (Breakpoint cluster region protein)
T2 sequence (P04629 510-781): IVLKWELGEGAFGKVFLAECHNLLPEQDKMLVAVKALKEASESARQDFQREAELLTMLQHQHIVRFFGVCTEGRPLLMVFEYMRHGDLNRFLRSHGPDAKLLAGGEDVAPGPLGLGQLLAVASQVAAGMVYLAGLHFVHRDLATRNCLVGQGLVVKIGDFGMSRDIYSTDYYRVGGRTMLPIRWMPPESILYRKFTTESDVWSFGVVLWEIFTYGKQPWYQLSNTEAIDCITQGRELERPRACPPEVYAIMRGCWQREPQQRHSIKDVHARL
How it was run: as §1

CYP2D6 = CYP2D6 (Homo sapiens, UniProt P10635); assay: CYP2D6 inhibition (fluorescent substrate AMMC); type: in vitro ADME; details: read-out: Cyp IC50 2D6
Sequence of CYP2D6 (P10635 whole entry): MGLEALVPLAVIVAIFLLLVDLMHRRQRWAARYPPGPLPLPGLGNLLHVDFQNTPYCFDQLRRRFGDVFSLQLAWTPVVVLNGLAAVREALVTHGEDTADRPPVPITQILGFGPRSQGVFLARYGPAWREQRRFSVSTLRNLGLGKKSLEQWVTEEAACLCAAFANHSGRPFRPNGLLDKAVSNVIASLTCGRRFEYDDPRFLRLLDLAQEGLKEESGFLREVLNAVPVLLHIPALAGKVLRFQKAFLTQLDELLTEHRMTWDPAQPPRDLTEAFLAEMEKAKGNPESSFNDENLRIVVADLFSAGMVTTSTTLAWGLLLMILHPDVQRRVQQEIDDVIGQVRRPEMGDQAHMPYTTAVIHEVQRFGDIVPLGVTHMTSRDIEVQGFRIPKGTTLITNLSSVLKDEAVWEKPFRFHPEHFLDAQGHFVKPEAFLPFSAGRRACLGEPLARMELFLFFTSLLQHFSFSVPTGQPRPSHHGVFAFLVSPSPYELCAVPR
How it was run: as §2

T1 sequence (Q16620 538-807): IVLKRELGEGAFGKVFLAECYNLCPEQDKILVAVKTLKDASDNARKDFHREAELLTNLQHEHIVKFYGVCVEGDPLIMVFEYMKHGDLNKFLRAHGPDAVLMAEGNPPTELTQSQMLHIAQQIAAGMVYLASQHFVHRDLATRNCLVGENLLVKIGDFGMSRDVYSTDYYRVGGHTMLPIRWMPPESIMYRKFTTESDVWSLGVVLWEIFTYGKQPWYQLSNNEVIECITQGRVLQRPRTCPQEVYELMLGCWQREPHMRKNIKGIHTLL

IC50 (BCR-NTRK2 BaF3 cells)	IC50 (SKNSH cells)	IC50 (CYP2C19)	IC50 (BCR-NTRK1 BaF3 cells)	IC50 (CYP2D6)	SMILES
< 100 nM	< 10000 nM	< 5000 nM	< 100 nM	> 10000 nM	COc1ccc(Nc2ccc(Cc3c[nH]c4ncc(C)cc34)c(F)n2)cn1 [Compound P-3019, [6-fluoro-5-(5-methyl-1H-pyrrolo[2,3-b]pyridin-3-ylmethyl)-pyridin-2-yl]-(6-methoxy-pyridin-3-yl)-amine]
< 100 nM	< 1000 nM		< 1000 nM		COc1ccc(Nc2ncc(Cc3c[nH]c4ncc(C)cc34)cn2)cc1 [Compound P-3021, (4-Methoxy-phenyl)-[5-(5-methyl-1H-pyrrolo[2,3-b]pyridin-3-ylmethyl)-pyrimidin-2-yl]-amine]
< 1000 nM	< 1000 nM		< 1000 nM		CCCOc1ccc(Nc2ncc(Cc3c[nH]c4ncc(C)cc34)cn2)cc1 [Compound P-3024, [5-(5-Methyl-1H-pyrrolo[2,3-b]pyridin-3-ylmethyl)-pyrimidin-2-yl]-(4-propoxy-phenyl)-amine]
< 10 nM	< 1000 nM		< 10 nM		CCc1ccc(Nc2ncc(Cc3c[nH]c4ncc(C)cc34)cn2)cc1 [Compound P-3025, (4-Ethyl-phenyl)-[5-(5-methyl-1H-pyrrolo[2,3-b]pyridin-3-ylmethyl)-pyrimidin-2-yl]-amine]
< 100 nM	> 25000 nM		< 100 nM		CCOc1ccc(Nc2ncc(Cc3c[nH]c4ncc(C)cc34)cn2)cc1 [Compound P-3026, (4-Ethoxy-phenyl)-[5-(5-methyl-1H-pyrrolo[2,3-b]pyridin-3-ylmethyl)-pyrimidin-2-yl]-amine]
< 1000 nM	> 25000 nM		< 100 nM		CCOc1ccc(Nc2ncc(Cc3c[nH]c4ncc(C)cc34)cn2)cn1 [Compound P-3027, (6-Ethoxy-pyridin-3-yl)-[5-(5-methyl-1H-pyrrolo[2,3-b]pyridin-3-ylmethyl)-pyrimidin-2-yl]-amine]
< 1000 nM	< 20000 nM		< 100 nM		Cc1cnc2[nH]cc(Cc3cnc(Nc4cc(-c5ccc(F)cc5)n[nH]4)nc3)c2c1 [Compound P-3028, [5-(4-Fluoro-phenyl)-2H-pyrazol-3-yl]-[5-(5-methyl-1H-pyrrolo[2,3-b]pyridin-3-ylmethyl)-pyrimidin-2-yl]-amine]
> 1000 nM	> 25000 nM		> 1000 nM		Cc1cnc2[nH]cc(Cc3cnc(Nc4cc(C(C)(C)C)n[nH]4)nc3)c2c1 [Compound P-3029, (5-tert-Butyl-2H-pyrazol-3-yl)-[5-(5-methyl-1H-pyrrolo[2,3-b]pyridin-3-ylmethyl)-pyrimidin-2-yl]-amine]
< 10 nM	< 100 nM		< 10 nM		Cc1cnc2[nH]cc(Cc3cnc(Nc4ccc(C(C)(C)C)cc4)nc3)c2c1 [Compound P-3030, (4-tert-Butyl-phenyl)-[5-(5-methyl-1H-pyrrolo[2,3-b]pyridin-3-ylmethyl)-pyrimidin-2-yl]-amine amine]
< 10 nM	< 100 nM		< 10 nM		Cc1cnc2[nH]cc(Cc3cnc(Nc4ccc(C(O)(C(F)(F)F)C(F)(F)F)cc4)nc3)c2c1 [Compound P-3031, 1,1,1,3,3,3-Hexafluoro-2-{4-[5-(5-methyl-1H-pyrrolo[2,3-b]pyridin-3-ylmethyl)-pyrimidin-2-ylamino]-phenyl}-propan-2-ol]
> 1000 nM	< 1000 nM		< 1000 nM		Cc1cnc2[nH]cc(Cc3cnc(Nc4cc(C5CC5)n[nH]4)nc3)c2c1 [Compound P-3032, (5-Cyclopropyl-2H-pyrazol-3-yl)-[5-(5-methyl-1H-pyrrolo[2,3-b]pyridin-3-ylmethyl)-pyrimidin-2-yl]-amine]
< 100 nM	< 1000 nM		< 100 nM		CSc1ccc(Nc2ncc(Cc3c[nH]c4ncc(C)cc34)cn2)cc1 [Compound P-3033, [5-(5-Methyl-1H-pyrrolo[2,3-b]pyridin-3-ylmethyl)-pyrimidin-2-yl]-(4-methylsulfanyl-phenyl)-amine]
< 1000 nM	< 1000 nM		< 100 nM		Cc1cnc2[nH]cc(Cc3cnc(Nc4ccc(S(C)(=O)=O)cc4)nc3)c2c1 [Compound P-3034, (4-Methanesulfonyl-phenyl)-[5-(5-methyl-1H-pyrrolo[2,3-b]pyridin-3-ylmethyl)-pyrimidin-2-yl]-amine]
< 1000 nM	< 1000 nM		< 1000 nM		CCn1ccc(Nc2ncc(Cc3c[nH]c4ncc(C)cc34)cn2)n1 [Compound P-3035, (1-Ethyl-1H-pyrazol-3-yl)-[5-(5-methyl-1H-pyrrolo[2,3-b]pyridin-3-ylmethyl)-pyrimidin-2-yl]-amine]
< 1000 nM	< 20000 nM		< 1000 nM		CCn1cc(Nc2ncc(Cc3c[nH]c4ncc(C)cc34)cn2)cn1 [Compound P-3036, (1-Ethyl-1H-pyrazol-4-yl)-[5-(5-methyl-1H-pyrrolo[2,3-b]pyridin-3-ylmethyl)-pyrimidin-2-yl]-amine]
> 10000 nM	> 25000 nM		> 1000 nM		Cc1cnc2[nH]cc(Cc3cnc(Nc4cc(C(F)(F)F)n[nH]4)nc3)c2c1 [Compound P-3037, [5-(5-Methyl-1H-pyrrolo[2,3-b]pyridin-3-ylmethyl)-pyrimidin-2-yl]-(5-trifluoromethyl-2H-pyrazol-3-yl)-amine]
> 1000 nM	> 25000 nM		< 1000 nM		Cc1cnc2[nH]cc(Cc3cnc(Nc4cc(OC(C)C)n[nH]4)nc3)c2c1 [Compound P-3038, (5-Isopropoxy-2H-pyrazol-3-yl)-[5-(5-methyl-1H-pyrrolo[2,3-b]pyridin-3-ylmethyl)-pyrimidin-2-yl]-amine]
< 1000 nM	> 1000 nM	> 10000 nM	< 1000 nM	> 10000 nM	CCOc1ccc(Nc2ccc(Cc3c[nH]c4ncc(C)cc34)c(F)n2)cn1 [Compound P-3039, (6-ethoxy-pyridin-3-yl)-[6-fluoro-5-(5-methyl-1H-pyrrolo[2,3-b]pyridin-3-ylmethyl)-pyridin-2-yl]-amine]
< 10 nM	> 1000 nM	> 10000 nM	< 100 nM	> 10000 nM	COc1ccc(Nc2ccc(C(=O)c3c[nH]c4ncc(C)cc34)c(F)n2)cn1 [Compound P-3040, [2-Fluoro-6-(6-methoxy-pyridin-3-ylamino)-pyridin-3-yl]-(5-methyl-1H-pyrrolo[2,3-b]pyridin-3-yl)-methanone]
< 1000 nM	> 1000 nM	> 10000 nM	< 1000 nM	> 10000 nM	Cc1cnc2[nH]cc(Cc3ccc(Nc4ccc(C)nc4)nc3F)c2c1 [Compound P-3041, [6-Fluoro-5-(5-methyl-1H-pyrrolo[2,3-b]pyridin-3-ylmethyl)-pyridin-2-yl]-(6-methyl-pyridin-3-yl)-amine]
< 100 nM	> 1000 nM		< 1000 nM		Cc1ccc(Nc2ccc(Cc3c[nH]c4ncc(Cl)cc34)c(F)n2)cn1 [Compound P-3042, [5-(5-Chloro-1H-pyrrolo[2,3-b]pyridin-3-ylmethyl)-6-fluoro-pyridin-2-yl]-(6-methyl-pyridin-3-yl)-amine]
< 100 nM	< 1000 nM	> 10000 nM	< 100 nM	> 10000 nM	Cc1cnc2[nH]cc(C(=O)c3ccc(Nc4ccc(C)nc4)nc3F)c2c1 [Compound P-3043, [2-Fluoro-6-(6-methyl-pyridin-3-ylamino)-pyridin-3-yl]-(5-methyl-1H-pyrrolo[2,3-b]pyridin-3-yl)-methanone]
< 100 nM	> 1000 nM	> 10000 nM	< 1000 nM	> 10000 nM	Cc1ccc(Nc2ccc(C(=O)c3c[nH]c4ncc(Cl)cc34)c(F)n2)cn1 [Compound P-3044, (5-Chloro-1H-pyrrolo[2,3-b]pyridin-3-yl)-[2-fluoro-6-(6-methyl-pyridin-3-ylamino)-pyridin-3-yl]-methanone]
< 10 nM	> 25000 nM		< 100 nM		CCOc1ccc(Nc2ccc(C(=O)c3c[nH]c4ncc(C)cc34)c(F)n2)cn1 [Compound P-3045, [6-(6-ethoxy-pyridin-3-ylamino)-2-fluoro-pyridin-3-yl]-(5-methyl-1H-pyrrolo[2,3-b]pyridin-3-yl)-methanone]
< 100 nM	< 1000 nM		< 1000 nM		CCOc1ncnc2[nH]cc(Cc3ccc(Nc4ccc(Br)nc4)nc3F)c12 [Compound P-4020, (6-Bromo-pyridin-3-yl)-[5-(4-ethoxy-7H-pyrrolo[2,3-d]pyrimidin-5-ylmethyl)-6-fluoro-pyridin-2-yl]-amine]
< 1000 nM	< 1000 nM		> 1000 nM		CCOc1ncnc2[nH]cc(Cc3ccc(Nc4cccnc4)nc3F)c12 [Compound P-4021, [5-(4-Ethoxy-7H-pyrrolo[2,3-d]pyrimidin-5-ylmethyl)-6-fluoro-pyridin-2-yl]-pyridin-3-yl-amine]
